Active and inactive are the calls of the source.
What was measured:
[1] = biological target: Luciferin 4-monooxygenase (Photinus pyralis, UniProt P08659); test: firefly luciferase enzyme inhibitors, dose response, biochemical, luminescence (AID 1891)
[2] = biological target: T1, Tyrosine-protein phosphatase non-receptor type 7 (Homo sapiens, UniProt P35236); assay type: functional
T1 sequence (P35236 whole entry): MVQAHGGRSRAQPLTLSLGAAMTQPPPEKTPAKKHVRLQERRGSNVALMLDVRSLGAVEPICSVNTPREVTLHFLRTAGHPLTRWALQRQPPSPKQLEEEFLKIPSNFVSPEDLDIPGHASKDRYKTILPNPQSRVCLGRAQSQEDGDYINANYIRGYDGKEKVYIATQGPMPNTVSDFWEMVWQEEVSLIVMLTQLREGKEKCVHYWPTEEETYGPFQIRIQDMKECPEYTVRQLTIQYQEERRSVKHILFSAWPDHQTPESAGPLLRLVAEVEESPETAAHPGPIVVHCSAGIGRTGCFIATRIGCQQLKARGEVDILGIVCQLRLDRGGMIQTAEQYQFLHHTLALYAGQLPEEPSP

[3] = biological target: T2, Tyrosine-protein phosphatase non-receptor type 22 (Homo sapiens, UniProt Q9Y2R2); assay type: functional
T2 sequence (Q9Y2R2 whole entry): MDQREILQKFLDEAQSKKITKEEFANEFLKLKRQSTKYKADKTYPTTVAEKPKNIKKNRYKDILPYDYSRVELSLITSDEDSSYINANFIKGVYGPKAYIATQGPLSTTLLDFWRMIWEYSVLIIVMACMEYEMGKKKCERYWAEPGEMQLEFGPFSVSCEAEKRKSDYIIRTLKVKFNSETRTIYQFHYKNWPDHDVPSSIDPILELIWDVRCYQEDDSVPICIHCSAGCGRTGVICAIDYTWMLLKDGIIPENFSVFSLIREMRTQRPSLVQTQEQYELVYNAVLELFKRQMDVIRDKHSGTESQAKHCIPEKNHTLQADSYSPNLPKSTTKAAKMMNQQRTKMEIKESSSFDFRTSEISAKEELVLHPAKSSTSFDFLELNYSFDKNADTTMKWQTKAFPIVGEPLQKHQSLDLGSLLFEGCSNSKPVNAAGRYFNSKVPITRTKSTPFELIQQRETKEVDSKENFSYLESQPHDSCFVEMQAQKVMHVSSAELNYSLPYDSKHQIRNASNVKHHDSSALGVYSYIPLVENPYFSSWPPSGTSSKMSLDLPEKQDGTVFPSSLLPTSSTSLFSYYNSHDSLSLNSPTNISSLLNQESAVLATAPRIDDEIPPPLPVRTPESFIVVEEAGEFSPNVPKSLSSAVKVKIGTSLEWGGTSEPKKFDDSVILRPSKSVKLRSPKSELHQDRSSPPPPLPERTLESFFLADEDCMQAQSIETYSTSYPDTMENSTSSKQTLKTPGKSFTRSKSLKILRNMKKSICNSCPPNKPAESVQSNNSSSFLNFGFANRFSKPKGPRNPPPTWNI

[4] = biological target: T2, Tyrosine-protein phosphatase non-receptor type 22; assay type: functional; remark: listed apart in the source
[5] = Luminescence Cell-Based Dose Confirmation HTS to Identify Inhibitors of Platelet Dense Granule Release. [Related pubchem assays: 1663 (Primary HTS), 1678 (Summary of Project)]; assay type: functional
[6] = control 3'UTR Renilla luciferase suppression, dose response, counter-screen for Shn3 inhibitor project, cell-based, Clone20-Shn3RL, cherry-picked (AID 624133); assay type: functional
[7] = cytotoxicity toward NIH3T3 fibroblasts, dose response, counter-screen, cell-based, ATP luminescence, mouse fibroblasts (AID 2010); assay type: functional;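 further: cells exposed to compound for about 90 hours before reading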
[8] = inhibitors of intracellular T. cruzi replication, confirmation, NIH3T3 host cells, beta-gal luminescence (AID 2044); assay type: functional, cell-based;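 further: intracellular parasites grown in NIH/3T3 mouse fibroblasts as host cells; luminescent beta-galactosidase reporter signal from transgenic T. cruzi replicating inside host cells; inhibitors lower the luminescence signal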
[9] = test system: Jurkat; test: antigen receptor-induced NF-kB inhibitors, dose response, Jurkat, luciferase reporter, luminescence, B- and T-cell (AID 489004); assay type: functional, cell-based; conditions: Homo sapiens;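 further: NF-kB luciferase reporter Jurkat cells stimulated with PMA plus ionomycin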
[10] = Shn3 3'UTR reporter inhibitors, dose response, cell-based, Clone20 osteoblasts, firefly luciferase, cherry-picked (AID 624132); assay type: functional;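 further: firefly luciferase luminescence from reporter carrying the Shn3 3'UTR in osteoblasts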
[11] = HepG2 cell cytotoxicity, dose response, cytotoxicity control for Shn3 inhibitor project, CellTiter-Glo, cherry-picked (AID 624134); assay type: functional, cell-based
[12] = Luminescence Cell-Based Dose Retest to Confirm Inhibitors of Cancer Stem Cells. [Related pubchem assays (depositor defined):AID2717, AID2721]; assay type: functional; conditions: Homo sapiens
[13] = cytotoxicity in HEK-293T NF-kB-Luc cells, dose response, cytotoxicity control for B/T-cell NF-kB inhibitor project, cell-based, uHTS hits (AID 489019); assay type: functional;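 further: IC50 reflects cytotoxicity as loss of cell viability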
[14] = test system: INS1; test: beta cell apoptosis inhibitors, cytokine rescue, dose response, luminescence, retest (AID 449756); assay type: functional, cell-based; conditions: Rattus norvegicus;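 further: cell death triggered by IL-1 beta plus TNF-alpha plus IFN-gamma mixture; protective hits raise ATP signal compared with cytokine alone wells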
[15] = Luminescence Cell-Based Dose Response HTS to Identify Inhibitors of 5'UTR Stem-Loop Driven Prion Protein mRNA Translation in H4 Neuroglioblastoma Cells. [Related pubchem assays: 1827 (Project Summary), 1813 (Primary HTS)]; assay type: functional
[16] = test system: Vero; test: cells; assay type: functional; conditions: Chlorocebus sabaeus
[17] = inhibitors of firefly luciferase expression or activity, dose response, H4 neuroglioma cells, luminescence (AID 1990); assay type: functional, cell-based
[18] = inhibitors of SNCA 5'UTR-driven reporter translation, confirmation, H4 neuroglioma cells, luminescence (AID 1988); assay type: functional, cell-based
[19] = test system: H9c2; test: cells; assay type: functional, cell-based; conditions: Rattus norvegicus, H9c2, Myocardium;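 further: confirmatory concentration-response retest of ultra-high-throughput screening hits for modulation of myocardial damage; cell death induced by hydrogen peroxide oxidative stress; compound pretreatment for 60 min then peroxide exposure for 2 h; potency is for protecting the cells against peroxide damage rather than for killing them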
[20] = test system: Vero; test: cells; assay type: functional, cell-based; conditions: Chlorocebus sabaeus
[21] = biological target: Paired box protein Pax-8 (Homo sapiens, UniProt Q06710); test: inhibitors of PAX8-driven TPO luciferase reporter, dose response, RMG-I cells, cherry-pick (AID 687027); assay type: functional, cell-based;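 further: luciferase reporter driven by Pax8 target thyroperoxidase promoter measured by SteadyGlo luminescence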
Chain of Paired box protein Pax-8 (Q06710 whole entry): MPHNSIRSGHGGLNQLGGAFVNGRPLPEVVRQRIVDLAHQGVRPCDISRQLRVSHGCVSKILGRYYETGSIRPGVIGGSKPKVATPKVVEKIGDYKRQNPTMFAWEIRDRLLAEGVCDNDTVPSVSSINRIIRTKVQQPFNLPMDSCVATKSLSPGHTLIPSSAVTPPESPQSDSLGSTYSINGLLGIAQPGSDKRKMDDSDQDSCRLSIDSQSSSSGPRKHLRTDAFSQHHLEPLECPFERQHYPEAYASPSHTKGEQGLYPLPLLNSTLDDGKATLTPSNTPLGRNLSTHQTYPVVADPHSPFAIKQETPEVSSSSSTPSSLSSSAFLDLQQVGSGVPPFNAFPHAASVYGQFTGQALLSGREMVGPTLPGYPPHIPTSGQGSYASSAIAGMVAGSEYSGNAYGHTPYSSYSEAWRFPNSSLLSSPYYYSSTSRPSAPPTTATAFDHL

[22] = test system: HEK293; test: cells; conditions: Homo sapiens
[23] = Fluorescence-based cell-based high throughput dose response assay for inhibitors of the interaction of nucleotide-binding oligomerization domain containing 2 (NOD2) and the receptor-interacting serine-threonine kinase 2 (RIPK2).; assay type: functional; conditions: Homo sapiens
[24] = test system: HEK293; test: cells; conditions: Homo sapiens; remark: listed apart in the source
[25] = biological target: T3, Microphthalmia-associated transcription factor (Homo sapiens, UniProt O75030); test: TRPM1 promoter luciferase signal decrease, dose response, MITF inhibitor project, cell-based, SK-MEL-5, cherry-picked, set 3 (AID 493073); assay type: functional
T3 sequence (O75030 whole entry): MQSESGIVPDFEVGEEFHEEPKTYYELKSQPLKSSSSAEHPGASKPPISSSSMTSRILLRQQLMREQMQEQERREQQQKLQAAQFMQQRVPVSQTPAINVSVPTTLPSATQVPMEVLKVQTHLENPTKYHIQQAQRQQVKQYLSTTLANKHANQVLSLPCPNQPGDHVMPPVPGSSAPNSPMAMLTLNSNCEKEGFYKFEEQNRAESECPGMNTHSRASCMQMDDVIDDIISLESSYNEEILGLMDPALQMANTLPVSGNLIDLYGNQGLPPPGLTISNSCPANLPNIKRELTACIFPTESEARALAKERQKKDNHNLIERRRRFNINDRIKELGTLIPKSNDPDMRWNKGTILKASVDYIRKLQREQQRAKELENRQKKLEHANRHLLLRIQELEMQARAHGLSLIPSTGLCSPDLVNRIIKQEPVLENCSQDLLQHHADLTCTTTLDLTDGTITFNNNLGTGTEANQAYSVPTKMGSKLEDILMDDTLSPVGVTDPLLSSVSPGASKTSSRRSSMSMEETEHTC

[26] = biological target: CAAX prenyl protease 2 (Homo sapiens, UniProt Q9Y256); test: human Rce1 protease inhibitors, dose response, biochemical, yeast membranes, quenched-peptide fluorescence, cherry-pick (AID 588849)
Chain of CAAX prenyl protease 2 (Q9Y256 whole entry): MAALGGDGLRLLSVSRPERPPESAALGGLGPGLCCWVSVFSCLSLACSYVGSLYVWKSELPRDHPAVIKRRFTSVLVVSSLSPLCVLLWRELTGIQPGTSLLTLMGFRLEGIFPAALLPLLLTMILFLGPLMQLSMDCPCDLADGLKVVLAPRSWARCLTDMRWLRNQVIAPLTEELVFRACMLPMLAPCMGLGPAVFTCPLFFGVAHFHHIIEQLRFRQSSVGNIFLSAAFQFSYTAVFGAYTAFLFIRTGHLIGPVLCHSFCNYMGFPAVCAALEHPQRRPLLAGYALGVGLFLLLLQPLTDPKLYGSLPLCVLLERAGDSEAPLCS

[27] = biological target: Heat shock protein HSP 90-alpha (Homo sapiens, UniProt P07900); assay type: functional, organism-based
[28] = test system: Streptococcus; test: Group A Streptococcus viability loss, dose response, counter-screen for streptokinase expression inhibitor project, luminescence, BacTiterGlo (AID 1915); assay type: functional, organism-based;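 further: potency for reduction of bacterial viability or growth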
[29] = test system: Streptococcus sp. 'group A'; test: growth inhibition of control SK(-) GAS strain, dose response, counter-screen for streptokinase expression inhibitor project, luminescence, kanamycin, BacTiterGlo, confirmation (AID 1900); assay type: functional, organism-based
[30] = biological target: Exodeoxyribonuclease V (Escherichia coli (strain K12), UniProt P04993+P07648+P08394); test: E. coli RecBCD inhibitors, dose response, counter-screen for AddAB inhibitor project, absorbance, V66 E. coli, mutant T4 phage (AID 492957); assay type: functional, cell-based, Escherichia coli str. K-12 substr. MG1655
Chain of Exodeoxyribonuclease V (P04993 whole entry): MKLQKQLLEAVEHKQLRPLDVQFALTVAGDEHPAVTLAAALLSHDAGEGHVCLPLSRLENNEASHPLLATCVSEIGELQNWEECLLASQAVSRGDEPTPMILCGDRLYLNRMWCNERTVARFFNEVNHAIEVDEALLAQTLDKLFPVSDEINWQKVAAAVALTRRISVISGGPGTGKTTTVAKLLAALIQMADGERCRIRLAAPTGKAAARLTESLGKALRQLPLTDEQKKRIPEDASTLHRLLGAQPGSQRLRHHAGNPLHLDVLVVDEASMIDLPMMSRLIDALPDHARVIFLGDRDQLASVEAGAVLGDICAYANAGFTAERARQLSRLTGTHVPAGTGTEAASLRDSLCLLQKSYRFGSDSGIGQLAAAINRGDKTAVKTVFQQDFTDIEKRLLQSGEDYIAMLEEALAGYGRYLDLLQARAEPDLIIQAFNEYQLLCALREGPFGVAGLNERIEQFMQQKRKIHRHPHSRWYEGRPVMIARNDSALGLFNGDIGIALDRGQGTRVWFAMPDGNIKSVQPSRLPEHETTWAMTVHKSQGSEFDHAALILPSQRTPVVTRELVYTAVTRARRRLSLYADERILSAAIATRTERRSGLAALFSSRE
Chain of Exodeoxyribonuclease V (P07648 whole entry): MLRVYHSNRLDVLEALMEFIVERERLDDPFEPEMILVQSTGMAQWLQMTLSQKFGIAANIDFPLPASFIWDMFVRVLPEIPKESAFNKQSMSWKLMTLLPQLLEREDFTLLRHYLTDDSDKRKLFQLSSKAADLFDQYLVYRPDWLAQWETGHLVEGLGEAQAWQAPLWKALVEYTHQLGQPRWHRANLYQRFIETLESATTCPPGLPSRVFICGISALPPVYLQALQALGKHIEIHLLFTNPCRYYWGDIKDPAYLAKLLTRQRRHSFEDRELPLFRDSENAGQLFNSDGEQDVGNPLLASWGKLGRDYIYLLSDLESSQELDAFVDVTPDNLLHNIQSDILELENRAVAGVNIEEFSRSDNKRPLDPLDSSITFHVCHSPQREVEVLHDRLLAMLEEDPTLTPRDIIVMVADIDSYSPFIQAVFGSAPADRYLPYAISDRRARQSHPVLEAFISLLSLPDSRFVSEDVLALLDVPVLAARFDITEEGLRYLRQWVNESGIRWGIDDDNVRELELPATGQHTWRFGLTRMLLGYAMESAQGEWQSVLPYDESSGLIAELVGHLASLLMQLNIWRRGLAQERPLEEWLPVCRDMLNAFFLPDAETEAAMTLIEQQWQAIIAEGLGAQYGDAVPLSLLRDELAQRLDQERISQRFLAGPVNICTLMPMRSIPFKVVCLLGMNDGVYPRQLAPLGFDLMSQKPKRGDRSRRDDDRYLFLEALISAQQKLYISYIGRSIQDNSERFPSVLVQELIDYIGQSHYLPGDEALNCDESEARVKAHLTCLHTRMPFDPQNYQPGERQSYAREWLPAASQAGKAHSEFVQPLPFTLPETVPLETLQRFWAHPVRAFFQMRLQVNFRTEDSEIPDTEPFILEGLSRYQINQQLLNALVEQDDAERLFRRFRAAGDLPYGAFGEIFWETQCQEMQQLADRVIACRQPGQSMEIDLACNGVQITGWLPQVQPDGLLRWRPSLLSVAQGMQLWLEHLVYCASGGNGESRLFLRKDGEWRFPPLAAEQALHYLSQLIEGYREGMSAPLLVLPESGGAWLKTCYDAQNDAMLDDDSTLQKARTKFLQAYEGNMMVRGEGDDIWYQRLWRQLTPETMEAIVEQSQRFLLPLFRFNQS
Chain of Exodeoxyribonuclease V (P08394 whole entry): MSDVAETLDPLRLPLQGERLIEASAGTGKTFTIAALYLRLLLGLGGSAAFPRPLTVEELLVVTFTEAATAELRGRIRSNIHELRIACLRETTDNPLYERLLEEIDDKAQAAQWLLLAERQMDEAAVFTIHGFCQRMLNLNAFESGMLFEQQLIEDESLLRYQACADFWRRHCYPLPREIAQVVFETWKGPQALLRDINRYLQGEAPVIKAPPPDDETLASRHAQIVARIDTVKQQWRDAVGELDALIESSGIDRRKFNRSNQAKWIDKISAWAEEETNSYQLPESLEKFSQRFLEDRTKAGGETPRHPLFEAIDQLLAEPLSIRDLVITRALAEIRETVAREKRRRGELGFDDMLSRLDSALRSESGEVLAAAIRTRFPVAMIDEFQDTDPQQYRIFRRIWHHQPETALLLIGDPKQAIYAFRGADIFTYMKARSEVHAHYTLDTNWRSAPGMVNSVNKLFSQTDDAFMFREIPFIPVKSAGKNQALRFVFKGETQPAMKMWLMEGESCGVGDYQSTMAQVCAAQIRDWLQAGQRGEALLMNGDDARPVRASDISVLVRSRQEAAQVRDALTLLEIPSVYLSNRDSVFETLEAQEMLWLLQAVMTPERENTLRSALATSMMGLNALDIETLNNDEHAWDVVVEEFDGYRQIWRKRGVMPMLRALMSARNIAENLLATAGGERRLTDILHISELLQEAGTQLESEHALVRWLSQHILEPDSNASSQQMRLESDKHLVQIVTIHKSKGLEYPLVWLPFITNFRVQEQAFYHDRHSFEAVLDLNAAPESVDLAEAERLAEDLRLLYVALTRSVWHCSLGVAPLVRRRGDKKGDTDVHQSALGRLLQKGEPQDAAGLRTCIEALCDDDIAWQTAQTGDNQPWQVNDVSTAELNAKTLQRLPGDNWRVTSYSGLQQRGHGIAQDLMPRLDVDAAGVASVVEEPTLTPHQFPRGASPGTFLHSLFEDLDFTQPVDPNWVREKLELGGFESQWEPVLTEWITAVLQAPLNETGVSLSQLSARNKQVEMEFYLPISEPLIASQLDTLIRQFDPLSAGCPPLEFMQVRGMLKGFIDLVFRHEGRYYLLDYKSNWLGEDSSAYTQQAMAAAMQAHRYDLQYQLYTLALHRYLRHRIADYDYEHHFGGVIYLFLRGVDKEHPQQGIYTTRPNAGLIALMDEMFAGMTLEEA

[31] = test system: H4; test: Luminescence Cell-Based Dose Response HTS to Identify Activators of 5'UTR Stem-Loop Driven Prion Protein mRNA Translation in H4 Neuroglioblastoma Cells. [Related pubchem assays: 1829 (Project Summary), 1814 (Primary HTS)]; assay type: functional; conditions: Homo sapiens
[32] = Luminescence Cell-Based Dose Response HTS to Identify Activators of Luciferase Translation or Activity in H4 […] Cells. [Related pubchem assays: 1829 (Project Summary), 1814 (Primary HTS)]; assay type: functional
[33] = Counterscreen for AddAB inhibitors: absorbance-based bacterial cell-based high throughput dose response assay for inhibitors of bacterial viability. [Related pubchem assays (depositor defined):AID435030, AID449728, AID449731, AID488942, AID488955, AID488956]; assay type: functional
[34] = Luminescence Cell-Based Dose Confirmation HTS to Identify Activators of 5'UTR Stem-Loop Driven Alpha-Synuclein mRNA Translation in H4 Neuroglioblastoma Cells. [Related pubchem assays: 1829 (Project Summary), 1814 (Primary HTS)]; assay type: functional
[35] = test system: BJ; test: cells; assay type: functional, cell-based; conditions: Homo sapiens
[36] = cells; assay type: functional, cell-based
[37] = cells; assay type: functional, cell-based; remark: listed apart in the source
[38] = cytotoxicity toward DRD oncogenic fibroblasts, dose response, cell-based, non-viral oncogenic, luminescence (AID 1934); assay type: functional; conditions: Homo sapiens
[39] = test system: BJ; test: cytotoxicity toward BJ-TERT-LT-ST fibroblasts, dose response, cell-based, RAS-independent, luminescence (AID 1935); assay type: functional; conditions: Homo sapiens;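 further: BJ fibroblasts immortalized with TERT plus LT and ST oncogenes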
[40] = test system: BJ; test: cytotoxicity toward Ras-transformed BJeLR fibroblasts, dose response, cell-based, alamar blue fluorescence, cherrypicked samples (AID 2631); assay type: functional; conditions: Homo sapiens;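 further: confirmatory dose-response assay in RAS-dependent BJ fibroblasts engineered with TERT, LT and ST, with cytotoxicity read by fluorescence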
[41] = test system: BJ; test: cytotoxicity toward BJ-TERT fibroblasts, dose response, cell-based, RAS-independent, luminescence (AID 1933); assay type: functional; conditions: Homo sapiens
[42] = microbe, parasite or virus in culture; assay type: functional; conditions: Mycobacterium tuberculosis

Chain of Luciferin 4-monooxygenase (P08659 whole entry): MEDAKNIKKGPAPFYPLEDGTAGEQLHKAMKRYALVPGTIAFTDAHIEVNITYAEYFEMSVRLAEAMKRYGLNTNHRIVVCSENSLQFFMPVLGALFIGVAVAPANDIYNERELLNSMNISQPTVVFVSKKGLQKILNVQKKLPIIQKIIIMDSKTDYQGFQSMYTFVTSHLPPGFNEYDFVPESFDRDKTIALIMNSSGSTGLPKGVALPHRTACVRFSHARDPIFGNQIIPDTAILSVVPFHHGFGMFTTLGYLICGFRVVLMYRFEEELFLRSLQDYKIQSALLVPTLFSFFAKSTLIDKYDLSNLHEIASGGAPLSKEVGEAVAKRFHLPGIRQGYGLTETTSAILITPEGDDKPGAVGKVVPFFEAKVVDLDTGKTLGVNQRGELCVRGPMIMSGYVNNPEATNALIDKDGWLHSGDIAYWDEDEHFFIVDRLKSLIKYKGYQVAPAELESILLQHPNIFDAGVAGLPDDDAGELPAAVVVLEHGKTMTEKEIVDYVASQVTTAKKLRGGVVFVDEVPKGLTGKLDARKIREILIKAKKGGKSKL

COC(=O)C(C(=O)NCC1CCCO1)C1CCCCCC1 (stereo not drawn)
EC50 [1]: > 112 µM (not active) | IC50 [2]: > 79.4 µM (inactive) | IC50 [3]: > 79.4 µM (inactive) | IC50 [4]: > 79.4 µM (inactive) | EC50 [5]: > 112 µM (not active)

Cc1sc2ncnc(N3CCN(CCOc4ccc(Cl)cc4)CC3)c2c1C
AC50 [6]: 6.27 µM (active) | EC50 [7]: > 30 µM (not active) | EC50 [8]: 2.29 µM (active) | IC50 [9]: 64.1 µM (inactive) | AC50 [10]: 1.35 µM (active) | AC50 [11]: 3.27 µM (active) | AC50 [12]: 5.5 µM (active) | IC50 [13]: > 80 µM (inactive) | AC50 [14]: 2.74 µM (active)

CC(Oc1cccc(Cl)c1)C(=O)Nc1nc(-c2ccccn2)cs1 (stereo not drawn)
EC50 [7]: 6.81 µM (active) | EC50 [8]: 0.822 µM (active) | EC50 [15]: 11.9 µM (active) | CC50 [16]: 15.8 µM (active) | EC50 [17]: 10.4 µM (active) | EC50 [18]: 9.63 µM (active) | IC50 [19]: > 79 µM (inactive) | IC50 [20]: > 25 µM (active)

O=C(Cn1ncc(Cl)c(Cl)c1=O)Nc1ccc2c(c1)OCO2
AC50 [21]: 4.07 µM (active) | EC50 [22]: > 59.6 µM (inactive) | IC50 [23]: 11.8 µM (inactive) | EC50 [24]: > 59.6 µM (inactive) | AC50 [25]: 13.2 µM (active)

Cc1ccc(-c2nc(CN3CCCCC3)cc(CN3CCCCC3)c2O)cc1
AC50 [26]: 10.1 µM (active)

CC(C)Cc1cc(-c2ccco2)c(C#N)c(N)n1
EC50 [22]: > 59.6 µM (inactive) | EC50 [24]: > 59.6 µM (inactive)

O=[N+]([O-])c1ccc(NC(c2ccccc2)c2ccc3cccnc3c2O)cc1 (stereo not drawn)
CC50 [16]: 4.02 µM (active) | AC50 [27]: 3.92 µM (active) | IC50 [20]: > 25 µM (active)

CCOC(=O)C1=C(C)N=C2C(=C(O)c3ccccc32)C1c1ccc([N+](=O)[O-])o1 (stereo not drawn)
EC50 [28]: 29.9 µM (active) | EC50 [7]: > 60 µM (not active) | EC50 [8]: 1.43 µM (active) | EC50 [29]: 2.81 µM (active) | IC50 [30]: > 119 µM (inactive) | EC50 [31]: > 120 µM (not active) | EC50 [32]: > 120 µM (not active) | IC50 [33]: > 119 µM (inactive) | EC50 [34]: > 120 µM (not active)

COc1ccc(N/N=C(/N=Nc2nc(C)cc(O)n2)c2ccccc2)cc1
EC50 [35]: 3.68 µM (active) | EC50 [36]: 3.44 µM (active) | EC50 [37]: 5.67 µM (active) | EC50 [38]: 5.72 µM (active) | IC50 [30]: > 119 µM (inactive) | EC50 [39]: 4.21 µM (active) | EC50 [40]: 0.615 µM (active) | AC50 [14]: < 0.195 µM (active) | EC50 [41]: 4.09 µM (active) | CC50 [42]: 6.39 µM (active) | IC50 [33]: > 119 µM (inactive)
